ChEMBL document CHEMBL4342423, “An isoform-selective inhibitor of tropomyosin receptor kinase A behaves as molecular glue” (Bioorg Med Chem Lett, 2020)
pIC50: −log10 of the molar value.

Experiments:
[1] = target: T1, BDNF/NT-3 growth factors receptor (Homo sapiens, UniProt Q16620); test: Inhibition of wild type human N-terminal GST-fusion tagged TRKB kinase domain (456 to 822 residues) expressed in baculovirus expression system by HTRF assay
[2] = target: T1, BDNF/NT-3 growth factors receptor; test: Binding affinity to TRKB (unknown origin) assessed as dimerization by size exclusion chromatography

T1 sequence (Q16620 whole entry, the tested form may be a part): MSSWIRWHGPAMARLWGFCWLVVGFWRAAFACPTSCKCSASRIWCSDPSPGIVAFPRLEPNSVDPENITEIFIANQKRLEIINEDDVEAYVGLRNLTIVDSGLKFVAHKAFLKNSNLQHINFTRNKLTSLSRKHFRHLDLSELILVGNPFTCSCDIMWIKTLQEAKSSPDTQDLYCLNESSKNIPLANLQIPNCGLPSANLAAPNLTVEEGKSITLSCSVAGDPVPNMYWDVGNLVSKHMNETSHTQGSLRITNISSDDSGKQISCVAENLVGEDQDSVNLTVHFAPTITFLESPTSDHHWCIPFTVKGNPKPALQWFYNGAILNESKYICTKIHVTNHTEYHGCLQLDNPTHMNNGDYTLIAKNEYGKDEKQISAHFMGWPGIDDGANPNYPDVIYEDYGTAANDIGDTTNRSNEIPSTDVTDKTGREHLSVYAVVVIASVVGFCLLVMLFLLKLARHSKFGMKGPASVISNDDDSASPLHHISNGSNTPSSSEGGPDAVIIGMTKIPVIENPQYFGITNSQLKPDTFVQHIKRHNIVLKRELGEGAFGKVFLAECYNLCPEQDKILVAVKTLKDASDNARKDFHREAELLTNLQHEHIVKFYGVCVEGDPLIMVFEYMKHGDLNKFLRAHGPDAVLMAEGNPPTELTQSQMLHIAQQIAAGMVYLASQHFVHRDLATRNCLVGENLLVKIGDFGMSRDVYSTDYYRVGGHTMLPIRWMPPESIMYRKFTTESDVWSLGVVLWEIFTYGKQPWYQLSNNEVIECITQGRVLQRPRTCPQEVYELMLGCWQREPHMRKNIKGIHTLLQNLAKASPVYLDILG

pIC50 [1] | Activity [2] | Compound
4.03 | Not Active | Nc1c(N2CCN(C3CCCCC3)CC2)cc(Nc2ccc(C(=O)O)cc2)c2c1C(=O)c1ccccc1C2=O
9.03 |  | CC(C)Oc1cc(Nc2nc(N[C@@H](C)c3ccc(F)cn3)ncc2Cl)n[nH]1
